Results: ChEMBL document CHEMBL3430912, “GSK Tres Cantos Anti-Kinetoplastid Screening (TCAKS) Data”

What was measured:
[1] = system: Trypanosoma cruzi; assay: (§1) GSK_TCAKS: pIC50 H2C9 Imaging: H9c2 Host Cardiomyocytes. […] Cells were then washed once with PBS before infection. T. cruzi trypomastigotes, collected at days 5 to 8 after infection from LLC-MK2 parasite infected cultures, were allowed to swim out for 4h at 37C from a centrifuged pellet (2,500 rpm/10 min/room temperature). Trypomastigotes were then collected and counted in a CASY Cell Counter. Trypomastigotes, in supplemented DMEM, were added to H9c2 cultures in a multiplicity of infection of 1 and incubated for 18 h. Cells were washed once with PBS before incubation of the infected H9c2 monolayer with trypsin (Life-Technologies) to detach cells from the flask. Cells were counted in a CASY Cell Counter using a 150 um capillary and their density set at 5 * 10^4 cells per mL in supplemented assay DMEM. Infected H9c2 were dispensed into 384-well poly-lysine coated assay plates at 50uL per well using a Multidrop Combi dispenser. After seeding them, the plates were incubated at 37C, 5% CO2 for 72h. Cultures were then fixed and stained by addition of 50 uL of a solution containing 8% formaldehyde and 4 uM DRAQ5 DNA dye (BioStatus, UK) per well. […] Five images were collected per well for reliable statistical analysis. Automated image analysis was performed with a script developed on Acapella High Content Imaging and Analysis Software (PerkinElmer). Output: Number of H9c2 Host Cardiomyocytes nuclei to determine drug-related cytotoxicity.; format: functional, organism-based, Rattus norvegicus; conditions: H9c2, 4 h
[2] = system: Trypanosoma cruzi; assay: GSK_TCAKS: pIC50 Trypanosoma cruzi viability assay using beta-GAL activity. This assay was run at single shot at 5uM compound concentration per well. The biological reagents consisted of NIH-3T3 host cells and trypomastigotes parasitic cells; both cell types were set to a 3.3 * 10^5 cells/mL dilution in assay DMEM by means of a CASY cell counter device using a 60um capillary. 6 uL of the mixture were dispensed per well (about 1 * 10^3 host-cells and 1 * 10^3 parasites) with a Multidrop Combi dispenser. […] In all wells, the percentage of DMSO never exceeded 0.5%. Plates incubated for four days at 37C, 5% CO2. The substrate used for the assay fluorescence intensity (FLINT) readout was resorufin-beta-D-galactopiranoside (Sigma-Aldrich) at 5uM per well. It was diluted in PBS supplemented with the soft detergent Igepal (Fluka).; format: functional, organism-based, Mus musculus; conditions: Tulahuen, NIH3T3
[3] = target: Sterol 14-alpha demethylase (Trypanosoma cruzi (strain CL Brener), UniProt Q7Z1V1); assay: GSK_TCAKS: pIC50 CYP51 from Trypanosoma cruzi.; format: functional
Chain of Sterol 14-alpha demethylase (Q7Z1V1 whole entry): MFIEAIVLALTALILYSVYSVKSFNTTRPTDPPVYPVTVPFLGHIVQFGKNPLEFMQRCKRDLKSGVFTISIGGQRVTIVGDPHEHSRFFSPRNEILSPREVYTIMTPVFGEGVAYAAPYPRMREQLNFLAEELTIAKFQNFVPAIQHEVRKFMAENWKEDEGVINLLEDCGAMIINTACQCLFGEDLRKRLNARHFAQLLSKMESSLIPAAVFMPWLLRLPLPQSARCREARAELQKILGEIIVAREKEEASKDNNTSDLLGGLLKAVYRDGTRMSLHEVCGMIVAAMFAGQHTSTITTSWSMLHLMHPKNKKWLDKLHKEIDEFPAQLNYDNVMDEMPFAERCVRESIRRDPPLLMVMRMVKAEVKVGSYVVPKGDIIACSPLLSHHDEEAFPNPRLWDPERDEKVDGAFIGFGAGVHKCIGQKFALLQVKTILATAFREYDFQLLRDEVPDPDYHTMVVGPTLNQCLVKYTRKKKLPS

[4] = system: Leishmania donovani; assay: (§2) GSK_TCAKS: pIC50 Leishmania donovani Imaging: Amastigotes/Macrophages. Assay plates (384-well) were prepared by adding 250nL of compound to each well. For single shot assay, the final compound concentration was 5 uM. […] Automated image analysis was performed with a script developed on Acapella High Content Imaging and Analysis Software (PerkinElmer). Output: Average number of amastigotes per macrophage cell were reported for each well.; format: functional, organism-based, Homo sapiens; conditions: THP-1
[5] = GSK_TCAKS: pIC50 HepG2 human cell line viability assay using luminiscence. […] Seeding density was checked to ensure that new mono-layers were not more than 50% confluent at the time of harvesting. Cell suspension was added to 500 mL of the same medium at a final density of 1.2 * 10^5 cells/mL. This cell suspension was dispensed (25 uL, 3000 cells per well) into 384-well clear-bottom plates using a Multidrop Combi dispenser. Prior to addition of the cell suspension, the screening compounds (250 nL) were pre-dispensed into the plates with an Echo liquid handler. Plates were incubated for 48 h at 37C, 5% CO2. After incubation, plates equilibrated at room temperature for 30 min before proceeding to develop the luminescent signal. The signal developer, CellTiter-Glo Reagent, was allowed to equilibrate at room temperature for 30 min and added to the plates (25uL per well) using a Multidrop Combi dispenser. Plates were left for 10 min at room temperature for stabilization and then read using a ViewLux.; format: toxicity, cell-based
[6] = system: Trypanosoma brucei brucei; assay: GSK_TCAKS: pIC50 Trypanosoma brucei viability assay using fluorescence intensity. Assay plates (1536-well) were prepared by dispensing 25nL of compound solution per well using an Echo acoustic dispenser (Labcyte).; format: functional, organism-based; conditions: Lister 427, 2 h
[7] = system: Leishmania donovani; assay: as §2, with “THP-1 Host Macrophages.” for “Amastigotes/Macrophages.”, “THP-1” for “Average number of amastigotes per macrophage”, “cell count” for “cell”; format: functional, organism-based, Homo sapiens
[8] = system: Leishmania donovani; assay: as §2, with “Infected Macrophages.” for “Amastigotes/Macrophages.”, “Percent” for “Average number”, “infected” for “amastigotes per”, “cells” for “cell”; format: functional, organism-based, Homo sapiens; conditions: THP-1
[9] = system: NIH3T3; assay: GSK_TCAKS: pIC50 NIH 3T3 cell line viability assay using luminiscence. Tissue culture surface treated assay plates (1536-well) were used. […] The 100% cells survival control was determined exposing the host-cells to a 0.5% DMSO concentration, whereas the 100% toxicity control was achieved by seeding the cells in presence of Amphotericin B at 50uM. Plates were incubated for four days at 37C, 5% CO2. The assay readout was developed by addition of 5uL of CellTiter-Glo Reagent following the manufacturer's instructions. Luminiscence was measured using a ViewLux.; format: functional, cell-based; conditions: Mus musculus, NIH3T3, 96 h
[10] = system: Leishmania donovani; assay: GSK_TCAKS: pIC50 Leishmania donovani viability assay using fluorescence intensity. Assay plates (1536-well) were prepared by adding 30nL per well of compound. For single shot assay, the final compound concentration was 5uM. […] Briefly, eGFP LdBOB axenic amastigotes were harvested, fixed and counted in a CASY cell counter (Roche-Applied Science). A final concentration of 1.5 * 10^5 cells per well were prepared in amastigote media containing 500 U/mL penicillin/streptomycin (Invitrogen) and 6uL was dispensed to each experimental well using a Multidrop Combi dispenser (Thermo Scientific). 6uL of assay media was dispensed to control columns used as reference for 100% compound response. Following incubation for 72 h at 37C, 5% CO2, 2 uL of resazurin was added to each well at a final concentration of 0.5 mM in phosphate buffered saline (PBS) with IGEPAL (Sigma-Aldrich), 0.05% (v/v).; format: functional, organism-based
[11] = system: Trypanosoma brucei brucei; assay: GSK_TCAKS: pIC50 Trypanosoma brucei viability assay using luminiscence. Assay plates (1536-well) were prepared. T. brucei cultures were harvested and counted in a CASY cell counter. A parasite suspension was prepared at a final concentration of 5 * 10^4 cells/mL in complete HMI9 medium and 6uL was dispensed to all wells containing compounds using a Multidrop Combi dispenser. 6uL of HMI9 media with 0.4% DMSO were dispensed to control columns. Plates were incubated for 24 h at 37C, 5% CO2 then tempered for 10 min at room temperature. ATP content was quantified by adding 4 uL of CellTiter-Glo Reagent (Promega) according to the manufacturer's instructions. Luminescence was measured using a ViewLux.; format: functional, organism-based; conditions: Lister 427, CASY
[12] = system: Trypanosoma cruzi; assay: as §1, with “Trypanosoma cruzi” for “H2C9”, “Infected Cells.” for “H9c2 Host Cardiomyocytes.”, “percentage” for “Number”, “infected cells per well as a second infection marker.” for “H9c2 Host Cardiomyocytes nuclei to determine drug-related cytotoxicity.”; format: functional, organism-based, Rattus norvegicus; conditions: H9c2, 4 h
[13] = system: Trypanosoma cruzi; assay: as §1, with “Trypanosoma cruzi” for “H2C9”, “Amastigotes/Cell.” for “H9c2 Host Cardiomyocytes.”, “number” for “Number”, “amastigotes per cell as infection level measurement.” for “H9c2 Host Cardiomyocytes nuclei to determine drug-related cytotoxicity.”; format: functional, organism-based, Rattus norvegicus; conditions: H9c2, 4 h

| SMILES | IC50 [1] | IC50 [2] | IC50 [3] | IC50 [4] | IC50 at 48 h [5] | IC50 [6] | IC50 [7] | IC50 [8] | IC50 [9] | IC50 [10] | IC50 [11] | IC50 [12] | IC50 [13] |
| --- | --- | --- | --- | --- | --- | --- | --- | --- | --- | --- | --- | --- | --- |
| Cn1cc(CN2CCN(c3ccc4c(c3)CCN(C(=O)[C@H]3C[C@@H]3c3ccccc3)CC4)CC2)cn1 | 31.6 µM | 1.58 µM | 15.8 µM | 1 µM | 50.1 µM | 25.1 µM | 6.31 µM | 31.6 µM | 20 µM | 0.631 µM | 39.8 µM | 3.16 µM | 0.794 µM |
| COc1ccc(-c2nc3ncccc3o2)cc1NC(=O)c1cccs1 | > 50.1 µM | 2 µM | > 100 µM | > 50.1 µM | > 100 µM | 1.26 µM | 20 µM | > 50.1 µM | > 50.1 µM | 5.01 µM | 2.51 µM | 2.51 µM | 2 µM |
| CN(Cc1ccc(F)cc1)c1ccc(OCC(=O)N2CCCCC2c2cccnc2)nn1 (stereo unspecified) | > 50.1 µM | 0.316 µM | 0.0501 µM | > 50.1 µM | > 100 µM | > 39.8 µM | 31.6 µM | > 50.1 µM | 10 µM | 15.8 µM | > 39.8 µM | 0.398 µM | 0.398 µM |
| CC(CNS(=O)(=O)c1ccc(OC(F)F)cc1)c1ccc(NC(=O)c2ccncc2)cc1 (stereo unspecified) | > 50.1 µM | 0.2 µM | 0.0501 µM | 5.01 µM | 100 µM | 7.94 µM | 15.8 µM | > 50.1 µM | > 50.1 µM | > 50.1 µM | 20 µM | 0.1 µM | 0.0794 µM |
| Clc1ccc(CN2CCN(C3=NCCN3)CC2)cc1Cl | > 50.1 µM | 1.26 µM | > 100 µM | > 50.1 µM | 63.1 µM | > 39.8 µM | > 50.1 µM | > 50.1 µM | 39.8 µM | > 50.1 µM | > 39.8 µM | 10 µM | 1 µM |
| CCC1Oc2cc(S(=O)(=O)N(C)CC(=O)N3CCc4ccccc4C3)c(C)cc2NC1=O (stereo unspecified) | > 50.1 µM | 0.2 µM | 0.794 µM | 31.6 µM | > 100 µM | 25.1 µM | > 50.1 µM | > 50.1 µM | > 50.1 µM | > 50.1 µM | 31.6 µM | 0.251 µM | 0.251 µM |
| CCCn1c(NC(=O)Cc2ccc(Cl)cc2)nc2ccccc21 | > 50.1 µM | 0.631 µM | > 100 µM | 3.16 µM | > 100 µM | 2 µM | > 50.1 µM | 5.01 µM | > 50.1 µM | 39.8 µM | 3.16 µM | 2 µM | 1.26 µM |
| CCN(Cc1ccncc1)Cc1ccc(NC(=O)c2cc(-c3ccc(F)cc3)n[nH]2)cc1 | > 50.1 µM | 0.398 µM | 0.0794 µM | 2.51 µM | > 100 µM | > 39.8 µM | 5.01 µM | > 50.1 µM | 10 µM | 15.8 µM | > 39.8 µM | 0.251 µM | 0.251 µM |
| O=c1oc2ccccc2n1C1CCN(Cc2ccccc2-c2cccnc2)CC1 | > 50.1 µM | 0.501 µM | 0.1 µM | 6.31 µM | > 100 µM | 39.8 µM | 12.6 µM | > 50.1 µM | 15.8 µM | > 50.1 µM | > 39.8 µM | 0.316 µM | 0.398 µM |
| COc1ccccc1C=CCN1C[C@H]2CCC[C@@H](C1)C2(O)c1cccnc1 (stereo partly specified) | > 50.1 µM | 0.0501 µM | 0.126 µM | 31.6 µM | > 100 µM | > 39.8 µM | 39.8 µM | > 50.1 µM | 31.6 µM | > 50.1 µM | > 39.8 µM | 0.0398 µM | 0.0398 µM |
| CC(=O)Nc1ccc(-c2csc(NC(=O)c3ccc([N+](=O)[O-])s3)n2)cc1 | 5.01 µM | 0.126 µM | 6.31 µM | 0.794 µM | 50.1 µM | 0.0251 µM | 12.6 µM | 1 µM | 6.31 µM | 0.398 µM | 0.158 µM | 0.126 µM | 0.1 µM |
| O=S(=O)(NCC(c1cccnc1)N1CCN(c2ccc(F)cc2)CC1)c1cccs1 (stereo unspecified) | > 50.1 µM | 0.158 µM | 0.0398 µM | > 50.1 µM | > 100 µM | > 39.8 µM | > 50.1 µM | > 50.1 µM | > 50.1 µM | > 50.1 µM | > 39.8 µM | 0.126 µM | 0.126 µM |
